# Assay results: ChEMBL document CHEMBL1201862, “PubChem BioAssay data set” (2004)
# The source made the active and inactive calls.
# Legend:
# Streptokinase A = target: T1, Streptokinase A (Streptococcus pyogenes serotype M1, UniProt P10520); assay: S. pyogenes streptokinase expression inhibitors, potency, dose response, plasminogen activation absorbance, OD405 (AID 1914); format: functional, Streptococcus pyogenes M1 GAS;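 note: secreted streptokinase activity via plasminogen activation per viability signal from cell pellet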
# T1 sequence (P10520 whole entry): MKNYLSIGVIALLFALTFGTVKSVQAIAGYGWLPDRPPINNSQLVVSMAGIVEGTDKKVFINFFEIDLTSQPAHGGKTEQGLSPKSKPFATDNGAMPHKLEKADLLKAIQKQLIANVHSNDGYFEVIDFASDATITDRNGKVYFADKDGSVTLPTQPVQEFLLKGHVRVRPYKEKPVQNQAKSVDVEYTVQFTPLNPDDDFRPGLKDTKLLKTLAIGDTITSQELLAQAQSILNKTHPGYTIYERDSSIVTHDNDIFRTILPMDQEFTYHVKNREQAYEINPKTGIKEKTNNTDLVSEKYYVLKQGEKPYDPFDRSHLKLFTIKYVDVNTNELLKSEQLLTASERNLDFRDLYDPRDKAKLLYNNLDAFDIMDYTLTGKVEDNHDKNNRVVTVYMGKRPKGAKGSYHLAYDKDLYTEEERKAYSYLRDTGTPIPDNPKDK
# HEK293 [1] = assay: NOD2 signaling inhibitors in MDP-stimulated cells, cell-based, uHTS, luminescence (AID 2001); format: functional; details: Homo sapiens
# Streptococcus = assay: Group A Streptococcus viability loss, dose response, counter-screen for streptokinase expression inhibitor project, luminescence, BacTiterGlo (AID 1915); format: functional, organism-based;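 note: potency for reduction of bacterial viability or growth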
# HEK293 [2] = assay: NOD1 signaling inhibitors, primary screen, cell-based, luminescence, uHTS (AID 1578); format: functional; details: Homo sapiens
# HEK293 [3] = assay: cells; format: functional, cell-based; details: Homo sapiens
# HEK293 [4] = assay: cells; format: functional, cell-based; details: Homo sapiens; remark: listed apart in the source
# [5] = tested on: Streptococcus sp. 'group A'; assay: growth inhibition of control SK(-) GAS strain, dose response, counter-screen for streptokinase expression inhibitor project, luminescence, kanamycin, BacTiterGlo, confirmation (AID 1900); format: functional, organism-based
# HEK293 [6] = assay: inhibitors of LMP1-driven NF-kB reporter, dose response, cell-based, HEK293, luciferase, cherry-pick (AID 588343); format: functional; details: Homo sapiens
# [7] = target: Heat shock protein HSP 90-alpha (Homo sapiens, UniProt P07900); format: functional, organism-based
# [8] = inhibitors of HIV Env-driven cell fusion, dose response, cherry-pick (AID 652057); format: functional, cell-based
# [9] = ZM109 Env clade C HIV-1 fusion inhibitors, dose response, HeLa effector, CEM target cells, luciferase, cherry-pick (AID 652058); format: functional, cell-based
# [10] = CEM21 lymphoblast cell cytotoxicity, dose response, cytotoxicity control for viral fusion inhibitor project, CellTiter-Glo luminescence, cherry-picked (AID 652042); format: functional, cell-based;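 note: potency for signal decrease meaning cytotoxicity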
# [11] = Luminescence Cell-Based Dose Retest to Confirm Inhibitors of Cancer Stem Cells. [Related pubchem assays (depositor defined):AID2717, AID2721]; format: functional; details: Homo sapiens
# [12] = inhibitors of firefly luciferase expression or activity, dose response, H4 neuroglioma cells, luminescence (AID 1990); format: functional, cell-based
# [13] = inhibitors of SNCA 5'UTR-driven reporter translation, confirmation, H4 neuroglioma cells, luminescence (AID 1988); format: functional, cell-based
# [14] = Luminescence Cell-Based Dose Response HTS to Identify Inhibitors of 5'UTR Stem-Loop Driven Prion Protein mRNA Translation in H4 Neuroglioblastoma Cells. [Related pubchem assays: 1827 (Project Summary), 1813 (Primary HTS)]; format: functional
# Nonstructural protein 1 = Nonstructural protein 1 (Influenza A virus, UniProt Q194T2); format: functional, Influenza A virus (A/California/07/2009(H1N1))
# Nonstructural protein 1, sequence (Q194T2 whole entry): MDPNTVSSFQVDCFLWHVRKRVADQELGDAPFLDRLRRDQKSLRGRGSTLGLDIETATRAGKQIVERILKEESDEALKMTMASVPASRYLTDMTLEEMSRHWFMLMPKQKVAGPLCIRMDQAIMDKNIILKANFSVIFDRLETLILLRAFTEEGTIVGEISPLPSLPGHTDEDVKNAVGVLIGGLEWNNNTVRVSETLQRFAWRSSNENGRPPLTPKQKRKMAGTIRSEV
structure (smiles),measurement,setting,value
O=C(NC(NC(=S)Nc1ccccc1Cl)C(Cl)(Cl)Cl)c1cccc(Cl)c1 (stereo unspecified),EC50,Streptokinase A,5.81 µM (active)
same,IC50,HEK293 [1],3.78 µM (active)
same,EC50,Streptococcus,3.79 µM (active)
same,EC50,HEK293 [2],> 20 µM (inactive)
same,IC50,HEK293 [3],3.72 µM (active)
same,IC50,HEK293 [4],11.5 µM (active)
same,EC50,[5],2.05 µM (active)
CCc1sc(C(=O)Nc2nc(-c3ccccn3)cs2)cc1C,AC50,HEK293 [6],1.33 µM (active)
same,AC50,[7],7.91 µM (active)
CN1CC(c2ccccc2)C2(SC(=S)N(Cc3ccco3)C2=O)C12C(=O)Nc1ccccc12 (stereo unspecified),AC50,[8],17.6 µM (active)
same,AC50,[9],18.4 µM (active)
same,AC50,[10],20.3 µM (active)
same,AC50,[11],4.4 µM (active)
CCOC(=O)c1sc(NC(=O)CNCc2ccccn2)c(C(=O)OCC)c1C,EC50,[12],11.7 µM (active)
same,EC50,Streptococcus,5.05 µM (active)
same,EC50,[13],8.92 µM (active)
same,AC50,HEK293 [6],2.35 µM (active)
same,EC50,[14],9.71 µM (active)
same,IC50,Nonstructural protein 1,8.76 µM (active)
same,EC50,[5],0.195 µM (active)
CC(C)c1c(CN(C)C(C)Cc2ccccc2)n(C)n(-c2ccccc2)c1=O (stereo unspecified) [FAMPROFAZONE],AC50,HEK293 [6],292 µM (active)
